Like-named read-outs stand apart in the source and are kept apart here. One block for each molecule: values may come before it.
Columns and labels:
hH3R [1] = settings: previously reported competition binding studies, cited from earlier work
[2] = molecular target: T1, human histamine H3 receptor (hH3R) (Homo sapiens, UniProt Q9Y5N1); assay: BRET between Venus-Gβ1γ2 and masGRK3ct-Nluc to measure hH3R-induced Gαi2 activation in HEK293T cells; assay type: cell-based; settings: for agonist efficacy class in the Gβ1γ2 release assay: HEK293T cells co-expressing hH3R and Gαi2; for intrinsic activity (α) / pEC50 ± S.E.M.: hH3R-mediated Gαi2 activation in HEK293T cells; for inhibition of Venus-Gβ1γ2 recruitment to masGRK3ct-Nluc in response to 1 µM histamine: antagonist 10 µM; for pEC50 ± S.E.M.: BRET ratio after 10 min, mean ± S.E.M. of three experiments
T1 construct: expressed in transfected cells; host or cells: HEK293T cells, transient transfection (hH3R in pcDEF3)
T1 sequence (Q9Y5N1 whole entry): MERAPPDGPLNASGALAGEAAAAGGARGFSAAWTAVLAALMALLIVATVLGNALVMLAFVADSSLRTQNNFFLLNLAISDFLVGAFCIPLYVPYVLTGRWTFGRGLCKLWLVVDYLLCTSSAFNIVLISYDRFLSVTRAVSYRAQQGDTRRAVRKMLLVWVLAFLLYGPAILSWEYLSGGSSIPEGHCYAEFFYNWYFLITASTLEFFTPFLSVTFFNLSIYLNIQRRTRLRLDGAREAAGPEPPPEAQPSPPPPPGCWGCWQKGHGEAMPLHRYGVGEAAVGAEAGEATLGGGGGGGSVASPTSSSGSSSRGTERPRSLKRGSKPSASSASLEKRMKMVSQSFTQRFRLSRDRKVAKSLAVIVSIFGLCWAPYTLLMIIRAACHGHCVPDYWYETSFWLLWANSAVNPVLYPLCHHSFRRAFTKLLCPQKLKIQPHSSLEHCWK
Protocol: Cells were transiently transfected in a 10 cm^2 dish with plasmids coding for Venus155-239-Gβ1 (0.4 µg), Venus1-155-Gγ2 (0.4 µg), masGRK3ct-Nluc (0.4 µg), hH3R (0.4 µg), Gαi2-protein (1.2 µg), and empty pcDEF3 (2.2 µg) using 20 µg 25 kDa linear polyethylenimine (Polysciences Inc, Warrington, PA, USA), as previously described. The next day, 50,000 cells/well were transferred to a poly-L-lysine coated black 96 well plates (Greiner Bio-one GmbH, Frickenhausen, Germany) and grown for an additional 24 h.
(§1) Agonist-induced BRET between Venus-Gβ1γ2 and masGRK3ct-Nluc was measured on adherent HEK293T cells co-expressing hH3R and Gαi2 in the presence of NanoGlo® (3.2 µL/mL) using a Mithras LB940 multimode microplate reader (Berthold, Germany). Cells were stimulated with histamine in the absence and presence of antagonist in HBSS buffer, and BRET (540–40 nm) and luminescence (480–20 nm) signals were monitored either immediately or after 10 min at 25 °C. […] Next, cells were incubated in HBSS and stimulated with 10 μM imetit after various incubation times. BRET between Venus-G1βγ2 and masGRK3ct-Nluc was immediately measured upon imetit stimulation and BRET ratio after 10 s were plotted. Re-equilibration of pre-bound antagonists was measured upon pre-incubation of the cells with increasing concentrations of antagonist for one hour prior to the addition of increasing concentrations imetit or VUF8328 and BRET ratio was calculated either immediately after agonist addition (0–3 min) or after 10 min re-equilibration.
Ligand-induced BRET changes were calculated by dividing emission at 540–40 nm (Venus) by emission at 480–20 nm (Nluc) and baseline-corrected by subtracting BRET of vehicle. […] Agonist and antagonist concentration-response curves were fitted to three-parameter response models to obtain EC50 and IC50 values, respectively. […] For receptor recovery the vehicle corrected BRET ratio at 10 s after agonist addition was plotted over time.

[3] = molecular target: T1, human histamine H3 receptor (hH3R); assay: Recovery of hH3R responsiveness after washout of pre-bound antagonist (BRET Gβ1γ2 release assay); assay type: cell-based; settings: for RecT (receptor recovery time, 1/krec): 1 h pre-incubation at 10 × IC50, washout, 10 µM imetit, measured in singlo; for recovery of H3R-induced Gβ1γ2 release to steady-state level upon washout: agonist stimulation after washout of pre-bound antagonist
Protocol: Cells were then stimulated with a saturating concentration of imetit (10 µM) after different time intervals and BRET changes between Venus-Gβ1γ2 and masGRK3ct-Nluc were measured directly and BRET ratio 10 s after agonist stimulation were plotted (Figure 2A,B).
as §1
The receptor recovery time (RecT) was calculated as the reciprocal of the krec.

[4] = molecular target: T1, human histamine H3 receptor (hH3R); assay: Re-equilibration of pre-bound antagonist, Schild-plot analysis (BRET Gβ1γ2 release assay); assay type: cell-based; settings: for type of antagonism after 10 min re-equilibration: VUF8328, 1 h antagonist pre-incubation; for type of antagonism, response measured directly following agonist stimulation: imetit or VUF8328, 1 h antagonist pre-incubation
Protocol: Receptor-induced Venus-Gβ1γ2 recruitment to masGRK3ct-Nluc can be detected after different time intervals following stimulation with agonist, which offers the opportunity to evaluate the re-equilibration time of pre-bound antagonist within the same agonist-induced response. Cells were pre-incubated for 1 h with multiple concentrations of antagonist and subsequently stimulated with increasing concentrations agonist and BRET ratio was calculated either immediately after agonist addition or after 10 min re-equilibration (Figure 3A).
as §1
Equiactive agonist concentrations for Schild analysis were determined from concentration response curves at 10 % max agonist response (vide supra) in the absence and presence of increasing antagonist concentrations. Dose ratios (DR) were calculated by dividing the equiactive agonist concentration in the presence of antagonist by the equiactive agonist concentration in the absence of antagonist.

H3R = tested on: H3R; parameters: method as in PMID 30249614, PMID 30359639; settings: intact HEK293T cells; cited from earlier work
hH3R [5] = tested on: hH3R; parameters: method as in PMID 30249614; settings: CAMYEL biosensor; cited from earlier work
[6] = 1 h antagonist pre-incubation, agonist VUF8328, BRET after 10 min re-equilibration
[7] = 1 h antagonist pre-incubation, agonist VUF8328, BRET measured immediately
[8] = 1 h antagonist pre-incubation, agonist imetit, BRET measured immediately

SMILES: NCCc1c[nH]cn1 [Histamine, histamine]
- pKi (hH3R [1]; agonists): 6.7

SMILES: N=C(N)SCCc1cnc[nH]1 [Imetit]
- pKi (hH3R [1]; agonists): 8.6
- EC50 [2]: 0.251 nM
- agonist efficacy class in the Gβ1γ2 release assay [2]: full agonist
- intrinsic activity (α) ([2]; mean ± S.E.M.): 1.1 ± 0.1

SMILES: CN1CCN(C(=O)c2cc3cc(Cl)ccc3[nH]2)CC1 [JNJ7777120]
- inhibition of Venus-Gβ1γ2 recruitment to masGRK3ct-Nluc in response to 1 µM histamine [2]: ineffective

SMILES: CCNC(=O)[C@H]1C[C@@](F)(c2ccc(CN3CCCC3)c(F)c2)C1 [PF03654746]
- pKi (hH3R [1]; antagonists): 9.3
- pKB ([2]; calculated from IC50 values, inhibition of histamine-induced (1 µM) BRET ratio, 10 min, mean ± S.E.M.): 9.9 ± 0.1
- RecT (receptor recovery time, 1/krec) [3]: 3.6 ± 0.3 min
- hH3R recovery slower than upon washout of iodophenpropit and pitolisant ([3]; after antagonist washout): 2 to 2.5 fold
- recovery of H3R-induced Gβ1γ2 release to steady-state level upon washout [3]: < 20 min
- Schild slope, VUF8328 (10 min) [4, 6]: 1.2 ± 0.1
- pA2, VUF8328 (10 min) [4, 6]: 9.6 ± 0.2
- Schild slope, VUF8328 (0 min) [4, 7]: 1.5 ± 0.2
- pA2, VUF8328 (0 min) [4, 7]: 9.3 ± 0.2
- Schild slope, Imetit (0 min) [4, 8]: 1.0 ± 0.1
- pA2, Imetit (0 min) [4, 8]: 9.8 ± 0.1
- type of antagonism after 10 min re-equilibration [4]: near-surmountable
- type of antagonism, response measured directly following agonist stimulation [4]: insurmountable antagonists
- residence time (H3R): approximately 15 min

SMILES: c1ncc(CC2CCNCC2)[nH]1 [immepip]
- pKi (hH3R [1]; agonists): 8.8
- agonist efficacy class in the Gβ1γ2 release assay [2]: full agonist
- pEC50 ± S.E.M. [2]: 9.9 ± 0.1
- intrinsic activity (α) ([2]; mean ± S.E.M.): 1.0 ± 0.1

The next lines start with results.

- inhibition of Venus-Gβ1γ2 recruitment to masGRK3ct-Nluc in response to 1 µM histamine [2]: fully inhibited
- RecT (receptor recovery time, 1/krec) [3]: 1.7 ± 0.3 min
- recovery of H3R-induced Gβ1γ2 release to steady-state level upon washout [3]: < 20 min
- Schild slope, VUF8328 (10 min) [4, 6]: 1.1 ± 0.1
- Schild slope, VUF8328 (0 min) [4, 7]: 1.4 ± 0.0
- Schild slope, Imetit (0 min) [4, 8]: 1.1 ± 0.0
- type of antagonism after 10 min re-equilibration [4]: surmountable
- type of antagonism, response measured directly following agonist stimulation [4]: insurmountable antagonists
SMILES: Clc1ccc(CCCOCCCN2CCCCC2)cc1 [Pitolisant]
- time to full recovery of hH3R responsiveness following washout (hH3R [5]): > 30 min

- agonist efficacy class in the Gβ1γ2 release assay [2]: partial agonist
- pEC50 ± S.E.M. [2]: 9.4 ± 0.1
- intrinsic activity (α) ([2]; mean ± S.E.M.): 0.7 ± 0.2
SMILES: N=C(N)SCCCc1cnc[nH]1 [VUF8328]
- pKi (hH3R [1]; agonists): 8.5

- inhibition of Venus-Gβ1γ2 recruitment to masGRK3ct-Nluc in response to 1 µM histamine [2]: ineffective
SMILES: COc1ccc(CN(CCN(C)C)c2ccccn2)cc1 [mepyramine]

- inhibition of Venus-Gβ1γ2 recruitment to masGRK3ct-Nluc in response to 1 µM histamine [2]: ineffective
SMILES: CNC(=NCCSCc1csc(N=C(N)N)n1)NC#N [tiotidine]
